This is an account of results in patent publication US10669269B2, “Substituted N-(1H-indazol-4-yl)imidazo[1,2-a]pyridine-3-carboxamide compounds as type III receptor tyrosine kinase inhibitors” (ARRAY BIOPHARMA INC., priority 2010, dated 2020).

One assay addresses T1, PDGFR beta (Homo sapiens, UniProt P09619).
T1 construct: endogenous in cells; host or cells: HS27 human fibroblast cell line
The experiment in a line: Phospho PDGFR Cell Assay, sandwich ELISA (Example A). It counts as cell-based. The settings on record: averaged IC50, PDGFR beta phosphorylation in HS27 human fibroblast cell line, PDGF-BB stimulation 5 minutes. The method, then:
Compounds were screened for inhibition of PDGFR beta phosphorylation in the HS27 human fibroblast cell line. Cells were seeded into a 96 well tissue culture plate, then incubated overnight in a 37° C., 5% CO2 incubator. The following day, cells were treated for one hour with test compound dilutions. After stimulation with PDGF-BB ligand for 5 minutes, cells were lysed and added to a sandwich ELISA plate from R&D Systems to detect levels of phospho PDGFR beta. A standard 4-parameter logistic model was fit to the inhibitor dose response curves, with the IC50 being defined as the concentration of inhibitor giving 50 percent of control (POC).

For the next assay, the target named is T2, cFMS (Homo sapiens, UniProt P07333).
T2 construct: THP-1 cells (human acute monocytic leukemia cell line) were serum-starved for 4 hours; endogenous in cells; host or cells: THP-1 cells (human acute monocytic leukemia cell line)
T2 sequence (P07333 20-972): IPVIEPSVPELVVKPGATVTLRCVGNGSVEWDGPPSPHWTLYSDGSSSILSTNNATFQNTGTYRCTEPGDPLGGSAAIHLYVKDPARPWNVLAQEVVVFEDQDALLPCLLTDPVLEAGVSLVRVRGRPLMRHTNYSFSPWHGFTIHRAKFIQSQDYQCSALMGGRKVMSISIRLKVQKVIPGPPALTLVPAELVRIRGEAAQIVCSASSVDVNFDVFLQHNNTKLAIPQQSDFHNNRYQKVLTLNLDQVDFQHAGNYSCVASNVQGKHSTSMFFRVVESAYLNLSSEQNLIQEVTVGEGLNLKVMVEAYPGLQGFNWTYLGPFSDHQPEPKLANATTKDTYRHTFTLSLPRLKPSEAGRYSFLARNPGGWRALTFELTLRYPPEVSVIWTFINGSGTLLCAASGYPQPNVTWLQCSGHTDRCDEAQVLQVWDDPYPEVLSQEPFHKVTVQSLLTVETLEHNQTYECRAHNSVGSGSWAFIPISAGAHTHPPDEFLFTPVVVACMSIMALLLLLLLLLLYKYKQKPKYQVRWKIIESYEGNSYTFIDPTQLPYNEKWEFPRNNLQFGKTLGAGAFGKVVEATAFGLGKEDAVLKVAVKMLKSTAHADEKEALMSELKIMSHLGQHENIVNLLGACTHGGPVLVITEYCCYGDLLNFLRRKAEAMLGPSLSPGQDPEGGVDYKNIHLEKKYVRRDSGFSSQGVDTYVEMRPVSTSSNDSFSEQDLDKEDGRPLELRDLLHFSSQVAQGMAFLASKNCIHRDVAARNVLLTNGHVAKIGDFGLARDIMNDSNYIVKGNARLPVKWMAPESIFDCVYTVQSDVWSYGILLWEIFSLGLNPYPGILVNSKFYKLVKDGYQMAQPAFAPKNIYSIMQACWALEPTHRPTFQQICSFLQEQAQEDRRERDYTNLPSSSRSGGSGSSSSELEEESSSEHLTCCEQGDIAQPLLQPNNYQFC
Description: cFMS Cell-Based Assay (Example C). The following applies: averaged IC50; phospho-cFMS in THP-1 cells stimulated with 250 ng/mL recombinant human MCSF; read-out: cFMS Cell ELISA IC50. Summed up:
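THP-1 cells serum-starved 4 h, then treated 1 h with compound (9-point, 3-fold series, top dose typically 5,000 nM) at 37 °C, then stimulated 1 min with 250 ng/mL recombinant human MCSF. Phospho-cFMS in lysates quantified by capture ELISA against a purified phospho-protein standard curve. IC50 at 50 percent of control, 4-parameter logistic fit.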

In a further assay the target is T3, c-KIT (Homo sapiens, UniProt P10721).
T3 construct: M-07e cells (human acute megakaryoblastic leukemia cell line) were serum-starved for 4 hours; endogenous in cells; host or cells: M-07e cells (human acute megakaryoblastic leukemia cell line)
T3 sequence (P10721 26-976): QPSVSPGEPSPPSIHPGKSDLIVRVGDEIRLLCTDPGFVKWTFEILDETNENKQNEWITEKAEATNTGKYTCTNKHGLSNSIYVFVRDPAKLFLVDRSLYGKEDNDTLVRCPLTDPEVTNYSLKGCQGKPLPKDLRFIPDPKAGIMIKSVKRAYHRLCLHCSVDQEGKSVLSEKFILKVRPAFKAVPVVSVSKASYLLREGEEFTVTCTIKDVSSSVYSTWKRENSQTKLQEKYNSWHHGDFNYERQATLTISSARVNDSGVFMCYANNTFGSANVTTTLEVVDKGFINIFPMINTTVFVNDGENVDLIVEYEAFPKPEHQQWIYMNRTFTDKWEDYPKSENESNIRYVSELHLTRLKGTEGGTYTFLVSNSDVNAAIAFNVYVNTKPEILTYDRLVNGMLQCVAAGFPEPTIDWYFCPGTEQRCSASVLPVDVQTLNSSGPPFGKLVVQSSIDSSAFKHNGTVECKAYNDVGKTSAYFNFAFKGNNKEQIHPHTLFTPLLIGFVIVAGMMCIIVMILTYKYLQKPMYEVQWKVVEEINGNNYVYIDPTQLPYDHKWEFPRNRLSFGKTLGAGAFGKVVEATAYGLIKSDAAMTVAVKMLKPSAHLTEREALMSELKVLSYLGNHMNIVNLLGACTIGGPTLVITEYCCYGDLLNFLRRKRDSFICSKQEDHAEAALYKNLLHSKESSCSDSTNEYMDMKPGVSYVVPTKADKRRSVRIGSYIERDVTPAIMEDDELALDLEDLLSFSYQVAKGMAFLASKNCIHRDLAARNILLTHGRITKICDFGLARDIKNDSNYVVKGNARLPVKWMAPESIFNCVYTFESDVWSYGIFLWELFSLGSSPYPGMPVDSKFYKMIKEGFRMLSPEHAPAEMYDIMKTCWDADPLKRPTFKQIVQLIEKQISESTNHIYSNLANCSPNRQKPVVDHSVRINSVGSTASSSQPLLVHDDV
Description: c-KIT Cell-Based Assay (Example D). The settings on record: averaged IC50; phospho-c-KIT in M-07e cells stimulated with 150 ng/ml recombinant human SCF; read-out: cKIT Cell ELISA IC50. In short, it runs like this: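 M-07e cells serum-starved 4 h, treated 1 h with compound (9-point, 3-fold dilutions, top dose typically 5,000 nM) at 37° C, then stimulated 4 min with 150 ng/ml SCF. Phospho-c-KIT in lysates quantified by ELISA against a standard curve; IC50 from 4-parameter logistic fit as 50% of control.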
(In general: ELISA stands for enzyme-linked immunosorbent assay.)

T1 sequence (P09619 33-1106): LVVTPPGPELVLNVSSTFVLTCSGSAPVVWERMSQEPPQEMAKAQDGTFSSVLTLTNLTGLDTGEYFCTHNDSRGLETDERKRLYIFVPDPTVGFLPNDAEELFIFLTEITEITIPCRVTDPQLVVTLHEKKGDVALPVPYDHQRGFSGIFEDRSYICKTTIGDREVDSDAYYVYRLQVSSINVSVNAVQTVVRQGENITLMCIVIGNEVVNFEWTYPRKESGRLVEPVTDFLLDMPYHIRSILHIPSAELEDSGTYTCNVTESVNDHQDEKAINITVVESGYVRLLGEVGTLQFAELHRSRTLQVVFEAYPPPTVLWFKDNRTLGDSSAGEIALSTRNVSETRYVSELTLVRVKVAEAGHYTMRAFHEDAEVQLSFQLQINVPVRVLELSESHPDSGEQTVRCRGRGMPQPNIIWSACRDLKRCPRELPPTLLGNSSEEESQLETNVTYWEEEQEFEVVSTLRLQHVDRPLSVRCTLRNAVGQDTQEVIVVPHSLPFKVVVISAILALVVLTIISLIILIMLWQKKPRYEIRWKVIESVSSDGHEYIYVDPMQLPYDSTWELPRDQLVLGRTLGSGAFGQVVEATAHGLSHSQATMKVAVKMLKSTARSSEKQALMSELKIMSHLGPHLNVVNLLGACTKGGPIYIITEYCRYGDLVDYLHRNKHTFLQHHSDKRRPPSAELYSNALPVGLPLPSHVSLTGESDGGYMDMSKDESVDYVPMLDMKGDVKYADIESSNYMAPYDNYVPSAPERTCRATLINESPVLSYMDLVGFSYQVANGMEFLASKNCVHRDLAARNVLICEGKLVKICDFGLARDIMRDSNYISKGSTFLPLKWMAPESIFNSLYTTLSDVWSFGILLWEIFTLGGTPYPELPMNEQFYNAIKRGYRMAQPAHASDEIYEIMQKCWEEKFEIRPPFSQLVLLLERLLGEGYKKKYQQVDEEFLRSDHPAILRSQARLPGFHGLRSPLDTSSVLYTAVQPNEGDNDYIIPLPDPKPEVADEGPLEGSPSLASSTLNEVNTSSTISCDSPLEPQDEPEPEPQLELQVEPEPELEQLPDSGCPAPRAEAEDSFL

Take `CCc1cccc(Cn2nc(C)c3c(NC(=O)c4cnc5cc(OCCN6CCN(C)[C@@H](C)C6)ccn45)cccc32)n1` [Example 36, (S)-7-(2-(3,4-dimethylpiperazin-1-yl)ethoxy)-N-(1-((6-ethylpyridin-2-yl)methyl)-3-methyl-1H-indazol-4-yl)imidazo[1,2-a]pyridine-3-carboxamide]: the IC50 (usually the concentration at which inhibition is half-maximal) against PDGFR beta turned out to be 65.6 nM; on cFMS it was 12 nM; on c-KIT, 119 nM.
In the case of `CC(C)N1CCN(CCOc2ccn3c(C(=O)Nc4cccc5c4c(F)nn5Cc4cccc(C5CC5)n4)cnc3c2)CC1` [Example 22, N-(1-((6-cyclopropylpyridin-2-yl)methyl)-3-fluoro-1H-indazol-4-yl)-7-(2-(4-isopropylpiperazin-1-yl)ethoxy)imidazo[1,2-a]pyridine-3-carboxamide], the IC50 at PDGFR beta amounted to 17.6 nM; on cFMS, 6.7 nM; at c-KIT it was 5.2 nM.
On the same counts, the results for `Cc1cccc(Cn2nc(C)c3c(NC(=O)c4cnc5cc(C(C)NCCO)ccn45)cccc32)n1` (stereo not drawn) [Example 75, 7-(1-(2-hydroxyethylamino)ethyl)-N-(3-methyl-1-((6-methylpyridin-2-yl)methyl)-1H-indazol-4-yl)imidazo[1,2-a]pyridine-3-carboxamide] are at least 1000 nM, 427 nM and 5000 nM.
As to `Cc1nn(Cc2cccc(C(C)C)n2)c2cccc(NC(=O)c3cnc4cc(OCCN5CCN[C@@H](C)C5)ccn34)c12` [Example 46, (S)—N-(1-((6-isopropylpyridin-2-yl)methyl)-3-methyl-1H-indazol-4-yl)-7-(2-(3-methylpiperazin-1-yl)ethoxy)imidazo[1,2-a]pyridine-3-carboxamide], the IC50 against PDGFR beta was determined as 21.4 nM; on cFMS, 22.4 nM; at c-KIT, 42.5 nM.
Consider `CC(=O)c1ccn2c(C(=O)Nc3cccc4c3c(C)nn4Cc3cccc(C)n3)cnc2c1` [Example 79, 7-acetyl-N-(3-methyl-1-((6-methylpyridin-2-yl)methyl)-1H-indazol-4-yl)imidazo[1,2-a]pyridine-3-carboxamide], for which the IC50 at PDGFR beta is at least 1000 nM; on cFMS, 56.9 nM; at c-KIT it was 4320 nM.
For the molecule `CCCc1ccc(Cn2nc(C)c3c(NC(=O)c4cnc5cc(OCCN6CCN(C)[C@@H](C)C6)ccn45)cccc32)nc1` [Example 38, (S)-7-(2-(3,4-dimethylpiperazin-1-yl)ethoxy)-N-(3-methyl-1-((5-propylpyridin-2-yl)methyl)-1H-indazol-4-yl)imidazo[1,2-a]pyridine-3-carboxamide], the IC50 on PDGFR beta amounted to 253 nM; at cFMS, 15.4 nM; at c-KIT, 337 nM.
Take `COCCN1CCN(CCOc2ccn3c(C(=O)Nc4cccc5c4c(C)nn5Cc4cccc(C5CC5)n4)cnc3c2)CC1` [Example 20, N-(1-((6-cyclopropylpyridin-2-yl)methyl)-3-methyl-1H-indazol-4-yl)-7-(2-(4-(2-methoxyethyl)piperazin-1-yl)ethoxy)imidazo[1,2-a]pyridine-3-carboxamide]: the values for the IC50 on PDGFR beta, on cFMS and on c-KIT were 55.9 nM, 10.8 nM and 76.1 nM, respectively.
For `COCCOc1ccn2c(C(=O)Nc3cccc4c3cnn4C[C@@H]3CCCN(C(=O)OC(C)(C)C)C3)cnc2c1` [Example 117, (R)-tert-butyl 3-((4-(7-(2-methoxyethoxy)imidazo[1,2-a]pyridine-3-carboxamido)-1H-indazol-1-yl)methyl)piperidine-1-carboxylate], the IC50 on PDGFR beta came to 54.8 nM; on cFMS it was 168 nM; on c-KIT, 125 nM.
As to `O=C(Nc1cccc2c1cnn2Cc1ccccc1)c1cnc2cc(Br)ccn12` [Example 161, N-(1-benzyl-1H-indazol-4-yl)-7-bromoimidazo[1,2-a]pyridine-3-carboxamide], the IC50 against PDGFR beta was determined as 236 nM; at cFMS, 58.9 nM; at c-KIT, 43.1 nM.
Turning to `COCCOc1ccn2c(C(=O)Nc3cccc4c3c(C)nn4CC3CCCCO3)cnc2c1` (stereo not drawn) [Example 82, 7-(2-methoxyethoxy)-N-(3-methyl-1-((tetrahydro-2H-pyran-2-yl)methyl)-1H-indazol-4-yl)imidazo[1,2-a]pyridine-3-carboxamide], the results for the IC50 at PDGFR beta, on cFMS and on c-KIT were 309 nM, 122 nM and 458 nM, respectively.
For the molecule `Cc1nn(Cc2cccc(C(C)C)n2)c2cccc(NC(=O)c3cnc4cc(OCCN5C[C@@H](C)N(C)[C@@H](C)C5)ccn34)c12` [Example 7, N-(1-((6-Isopropylpyridin-2-yl)methyl)-3-methyl-1H-indazol-4-yl)-7-(2-((3S,5R)-3,4,5-trimethylpiperazin-1-yl)ethoxy)imidazo[1,2-a]pyridine-3-carboxamide], the IC50 at PDGFR beta turned out to be 40.9 nM; on cFMS it was 20.8 nM; at c-KIT, 43.7 nM.
The matching figures for `COCCOc1ccn2c(C(=O)Nc3cccc4c3cnn4CC3CN(C(=O)OC(C)(C)C)CCO3)cnc2c1` (stereo not drawn) [Example 123, tert-butyl 2-((4-(7-(2-methoxyethoxy)imidazo[1,2-a]pyridine-3-carboxamido)-1H-indazol-1-yl)methyl)morpholine-4-carboxylate]: 162 nM, 378 nM and 255 nM.
The matching figures for `Cc1cccc(Cn2nc(C)c3c(NC(=O)c4cnc5ccc(C#N)cn45)cccc32)n1` [Example 62, 6-cyano-N-(3-methyl-1-((6-methylpyridin-2-yl)methyl)-1H-indazol-4-yl)imidazo[1,2-a]pyridine-3-carboxamide]: 886 nM, 257 nM and 2450 nM.
As for `Cc1cccc(Cn2nc(C)c3c(NC(=O)c4cnc5cc(OCCN6CCN(C)[C@@H](C)C6)ccn45)cccc32)n1` [Example 35, (S)-7-(2-(3,4-dimethylpiperazin-1-yl)ethoxy)-N-(3-methyl-1-((6-methylpyridin-2-yl)methyl)-1H-indazol-4-yl)imidazo[1,2-a]pyridine-3-carboxamide], the figures for the IC50 against PDGFR beta, on cFMS and on c-KIT were 431 nM, 19.4 nM and 924 nM, respectively.
The matching figures for `Cc1cccc(Cn2nc(C)c3c(NC(=O)c4cnc5cc(CCO)ccn45)cccc32)n1` [Example 73, 7-(2-hydroxyethyl)-N-(3-methyl-1-((6-methylpyridin-2-yl)methyl)-1H-indazol-4-yl)imidazo[1,2-a]pyridine-3-carboxamide]: at least 1000 nM, 63.6 nM and 5000 nM.
`Cc1cccc(Cn2nc(C)c3c(NC(=O)c4cnc5cc(-c6cn[nH]c6)ccn45)cccc32)n1` [Example 70, N-(3-methyl-1-((6-methylpyridin-2-yl)methyl)-1H-indazol-4-yl)-7-(1H-pyrazol-4-yl)imidazo[1,2-a]pyridine-3-carboxamide]: the IC50 on PDGFR beta worked out at 99.2 nM; on cFMS it was 5.1 nM; at c-KIT, 146 nM.
The matching figures for `Cc1nn(Cc2ccc(C(C)C)cn2)c2cccc(NC(=O)c3cnc4cc(OCCN5CCN(C)[C@@H](C)C5)ccn34)c12` [Example 39, (S)-7-(2-(3,4-dimethylpiperazin-1-yl)ethoxy)-N-(1-((5-isopropylpyridin-2-yl)methyl)-3-methyl-1H-indazol-4-yl)imidazo[1,2-a]pyridine-3-carboxamide]: 68 nM, 35.7 nM and 188 nM.
On the same counts, the results for `Cc1nn(Cc2cccc(C3CCC3)n2)c2cccc(NC(=O)c3cnc4cc(OCCN5CCN(C)[C@@H](C)C5)ccn34)c12` [Example 32, (S)—N-(1-((6-cyclobutylpyridin-2-yl)methyl)-3-methyl-1H-indazol-4-yl)-7-(2-(3,4-dimethylpiperazin-1-yl)ethoxy)imidazo[1,2-a]pyridine-3-carboxamide] are 66.5 nM, 24.2 nM and 42.4 nM.
On the same counts, the results for `C[C@H]1CN(CCOc2ccn3c(C(=O)Nc4cccc5c4c(F)nn5Cc4cccc(C5CC5)n4)cnc3c2)CCN1C` [Example 24, (S)—N-(1-((6-cyclopropylpyridin-2-yl)methyl)-3-fluoro-1H-indazol-4-yl)-7-(2-(3,4-dimethylpiperazin-1-yl)ethoxy)imidazo[1,2-a]pyridine-3-carboxamide] are 14.1 nM, 6.8 nM and 6.4 nM.
`Cc1nn(Cc2ccc(F)c(C(C)C)n2)c2cccc(NC(=O)c3cnc4cc(OCCN5CCN(C)[C@@H](C)C5)ccn34)c12` [Example 41, (S)-7-(2-(3,4-dimethylpiperazin-1-yl)ethoxy)-N-(1-((5-fluoro-6-isopropylpyridin-2-yl)methyl)-3-methyl-1H-indazol-4-yl)imidazo[1,2-a]pyridine-3-carboxamide]: the IC50 on PDGFR beta came out at 19.6 nM; at cFMS it was 97.1 nM; on c-KIT it was 87.2 nM.
